Experimental data: patent publication US11498899B2, “Nitrone herbicides” (FMC Corporation, priority 2016, dated 2022)

Legend:
[1] = system: barnyardgrass (Echinochloa crus-galli); assay: Test A preemergence, visual injury rating 0-100 (0 no effect, 100 complete control); format: in vivo; conditions: for Barnyardgrass plant response rating: 31 g ai/ha, 0 to 100 scale (0 no effect, 100 complete control), approx. 10 days; for Barnyardgrass plant response rating (0 to 100 scale): 125 g ai/ha
[2] = system: foxtail, green (green foxtail, Setaria viridis); assay: Test A preemergence, visual injury rating 0-100; format: in vivo; conditions: for Foxtail, Green plant response rating: 31 g ai/ha, 0 to 100 scale (0 no effect, 100 complete control), approx. 10 days; for Foxtail, Green plant response rating (0 to 100 scale): 125 g ai/ha
kochia (Kochia scoparia) [3] = assay: Test A preemergence, visual injury rating 0-100; format: in vivo; conditions: for Kochia plant response rating: 31 g ai/ha, 0 to 100 scale (0 no effect, 100 complete control), approx. 10 days; for Kochia plant response rating (0 to 100 scale): 125 g ai/ha
[4] = system: pigweed (Amaranthus retroflexus); assay: Test A preemergence, visual injury rating 0-100; format: in vivo; conditions: for Pigweed plant response rating: 31 g ai/ha, 0 to 100 scale (0 no effect, 100 complete control), approx. 10 days; for Pigweed plant response rating (0 to 100 scale): 125 g ai/ha
[5] = system: ragweed (common ragweed, Ambrosia elatior); assay: Test A preemergence, visual injury rating 0-100; format: in vivo; conditions: for Ragweed plant response rating: 31 g ai/ha, 0 to 100 scale (0 no effect, 100 complete control), approx. 10 days; for Ragweed plant response rating (0 to 100 scale): 125 g ai/ha
[6] = system: ryegrass, Italian (Italian ryegrass, Lolium multiflorum); assay: Test A preemergence, visual injury rating 0-100; format: in vivo; conditions: for Ryegrass, Italian plant response rating: 31 g ai/ha, 0 to 100 scale (0 no effect, 100 complete control), approx. 10 days; for Ryegrass, Italian plant response rating (0 to 100 scale): 125 g ai/ha
[7] = system: barnyardgrass (Echinochloa crus-galli); assay: Test A postemergence, visual injury rating 0-100; format: in vivo; conditions: 0 to 100 scale
[8] = system: blackgrass (Alopecurus myosuroides); assay: Test A postemergence, visual injury rating 0-100; format: in vivo; conditions: 0 to 100 scale
corn (Zea mays) = assay: Test A postemergence, visual injury rating 0-100; format: in vivo; conditions: 0 to 100 scale
[9] = system: foxtail, green (green foxtail, Setaria viridis); assay: Test A postemergence, visual injury rating 0-100; format: in vivo; conditions: 0 to 100 scale
[10] = system: galium (catchweed bedstraw, Galium aparine); assay: Test A postemergence, visual injury rating 0-100; format: in vivo; conditions: 0 to 100 scale
kochia (Kochia scoparia) [11] = assay: Test A postemergence, visual injury rating 0-100; format: in vivo; conditions: 0 to 100 scale
[12] = system: pigweed (Amaranthus retroflexus); assay: Test A postemergence, visual injury rating 0-100; format: in vivo; conditions: 0 to 100 scale
[13] = system: ragweed (common ragweed, Ambrosia elatior); assay: Test A postemergence, visual injury rating 0-100; format: in vivo; conditions: 0 to 100 scale
[14] = system: ryegrass, Italian (Italian ryegrass, Lolium multiflorum); assay: Test A postemergence, visual injury rating 0-100; format: in vivo; conditions: 0 to 100 scale
[15] = system: wheat (Triticum aestivum); assay: Test A postemergence, visual injury rating 0-100; format: in vivo; conditions: 0 to 100 scale
[16] = system: ducksalad (Heteranthera limosa); assay: Test B flooded paddy test, visual rating 0-100; conditions: Flood, 250 g ai/ha, applied to paddy water, rated after 13 to 15 days
[17] = system: barnyardgrass (Echinochloa crus-galli); assay: Test B flooded paddy test, visual rating 0-100; conditions: Flood, 250 g ai/ha, applied to paddy water, rated after 13 to 15 days
rice (Oryza sativa) = assay: Test B flooded paddy test, visual rating 0-100 (0 no effect, 100 complete control); conditions: Flood, 250 g ai/ha, applied to paddy water, rated after 13 to 15 days

| Compound | Barnyardgrass plant response rating [1] | Barnyardgrass plant response rating (0 to 100 scale) [1] | Foxtail, Green plant response rating [2] | Foxtail, Green plant response rating (0 to 100 scale) [2] | Kochia plant response rating (kochia (Kochia scoparia) [3]) | Kochia plant response rating (0 to 100 scale) (kochia (Kochia scoparia) [3]) | Pigweed plant response rating [4] | Pigweed plant response rating (0 to 100 scale) [4] | Ragweed plant response rating [5] | Ragweed plant response rating (0 to 100 scale) [5] | Ryegrass, Italian plant response rating [6] | Ryegrass, Italian plant response rating (0 to 100 scale) [6] | Barnyardgrass plant response rating ([7]; 31 g ai/ha) | Barnyardgrass plant response rating ([7]; 125 g ai/ha) | Blackgrass plant response rating ([8]; 31 g ai/ha) | Blackgrass plant response rating ([8]; 125 g ai/ha) | Corn plant response rating (corn (Zea mays); 31 g ai/ha) | Corn plant response rating (corn (Zea mays); 125 g ai/ha) | Foxtail, Green plant response rating ([9]; 31 g ai/ha) | Foxtail, Green plant response rating ([9]; 125 g ai/ha) | other results |
| --- | --- | --- | --- | --- | --- | --- | --- | --- | --- | --- | --- | --- | --- | --- | --- | --- | --- | --- | --- | --- | --- |
| CC1=[N+]([O-])[C@@H](C(=O)Nc2cccc(F)c2F)[C@H](c2ccc(F)c(F)c2)C1 [Compound 39] | 100 | 100 | 100 | 100 | 0 | 30 | 0 | 30 | 0 | 100 | 20 | 10 | 0 | 60 | 0 | 50 | 0 | 10 | 10 | 70 | Galium plant response rating ([10]; 31 g ai/ha): 0; Galium plant response rating ([10]; 125 g ai/ha): 10; Kochia plant response rating (kochia (Kochia scoparia) [11]; 31 g ai/ha): 0; Kochia plant response rating (kochia (Kochia scoparia) [11]; 125 g ai/ha): 0; Pigweed plant response rating ([12]; 31 g ai/ha): 0; Pigweed plant response rating ([12]; 125 g ai/ha): 0; Ragweed plant response rating ([13]; 31 g ai/ha): 0; Ragweed plant response rating ([13]; 125 g ai/ha): 0; Ryegrass, Italian plant response rating ([14]; 31 g ai/ha): 0; Ryegrass, Italian plant response rating ([14]; 125 g ai/ha): 10; Wheat plant response rating ([15]; 31 g ai/ha): 0; Wheat plant response rating ([15]; 125 g ai/ha): 50; Ducksalad plant response rating (0 to 100 scale) [16]: 100; Barnyardgrass plant response rating (0 to 100 scale) [17]: 90; Rice plant response rating (0 to 100 scale) (rice (Oryza sativa)): 10 |
| CC1=[N+]([O-])[C@H](C(=O)Nc2cccc(F)c2F)[C@@H](c2ccc(Cl)cc2)C1 [Compound 40, (2S,3R)-3-(4-chlorophenyl)-N-(2,3-difluorophenyl)-3,4-dihydro-5-methyl-2H-pyrrole-2-carboxamide 1-oxide] | 100 | 100 | 100 | 100 | 0 | 80 | 0 | 80 | 20 | 80 | 0 | 10 | 80 | 90 | 0 | 60 | 20 | 30 | 40 | 80 | Galium plant response rating ([10]; 31 g ai/ha): 10; Galium plant response rating ([10]; 125 g ai/ha): 60; Kochia plant response rating (kochia (Kochia scoparia) [11]; 31 g ai/ha): 0; Kochia plant response rating (kochia (Kochia scoparia) [11]; 125 g ai/ha): 0; Pigweed plant response rating ([12]; 31 g ai/ha): 0; Pigweed plant response rating ([12]; 125 g ai/ha): 0; Ragweed plant response rating ([13]; 31 g ai/ha): 0; Ragweed plant response rating ([13]; 125 g ai/ha): 0; Ryegrass, Italian plant response rating ([14]; 31 g ai/ha): 0; Ryegrass, Italian plant response rating ([14]; 125 g ai/ha): 20; Wheat plant response rating ([15]; 31 g ai/ha): 0; Wheat plant response rating ([15]; 125 g ai/ha): 10; Ducksalad plant response rating (0 to 100 scale) [16]: 95; Barnyardgrass plant response rating (0 to 100 scale) [17]: 80; Rice plant response rating (0 to 100 scale) (rice (Oryza sativa)): 25 |
| CC1=[N+]([O-])[C@H](C(=O)Nc2cccc(F)c2F)[C@@H](c2ccc(C)cc2)C1 [Compound 42, (2S,3R)—N-(2,3-Difluorophenyl)-3,4-dihydro-5-methyl-3-(4-methylphenyl)-2H-pyrrole-2-carboxamide 1-oxide] | 100 | 100 | 100 | 100 | 0 | 90 | 0 | 80 | 0 | 70 | 0 | 80 | 50 | 90 | 80 | 80 | 20 | 50 | 50 | 90 | Galium plant response rating ([10]; 31 g ai/ha): 40; Galium plant response rating ([10]; 125 g ai/ha): 60; Kochia plant response rating (kochia (Kochia scoparia) [11]; 31 g ai/ha): 0; Kochia plant response rating (kochia (Kochia scoparia) [11]; 125 g ai/ha): 30; Pigweed plant response rating ([12]; 31 g ai/ha): 0; Pigweed plant response rating ([12]; 125 g ai/ha): 20; Ragweed plant response rating ([13]; 31 g ai/ha): 0; Ragweed plant response rating ([13]; 125 g ai/ha): 30; Ryegrass, Italian plant response rating ([14]; 31 g ai/ha): 0; Ryegrass, Italian plant response rating ([14]; 125 g ai/ha): 30; Wheat plant response rating ([15]; 31 g ai/ha): 20; Wheat plant response rating ([15]; 125 g ai/ha): 80; Ducksalad plant response rating (0 to 100 scale) [16]: 100; Barnyardgrass plant response rating (0 to 100 scale) [17]: 90; Rice plant response rating (0 to 100 scale) (rice (Oryza sativa)): 30 |
